Target: T1, hMCH-1R (Homo sapiens, UniProt Q99705)
T1 construct: expressed in transfected cells; host or cells: CHO/Galpha16 cells (stably transfected); membranes used
Assay: MCH-1 receptor binding test (125I-MCH binding to hMCH-1R transfected cell membranes)
Settings: hMCH-1R transfected CHO/Galpha16 cell membranes
Method: Membranes from CHO/Galpha 16 cells stably transfected with human hMCH-1R are resuspended using a syringe (needle 0.6×25 mm) and diluted in test buffer (50 mM HEPES, 10 mM MgCl2, 2 mM EGTA, pH 7.00; 0.1% bovine serum albumin (protease-free), 0.021% bacitracin,1 μg/mL aprotinin, 1 μg/mL leupeptin and 1 μM phosphoramidone) to a concentration of 5 to 15 μg/mL. […] After the incubation the reaction is filtered using a cell harvester through 0.5% PEI treated glass fibre filters (GF/B, Unifilter Packard). The membrane-bound radioactivity retained on the filter is then determined after the addition of scintillator substance (Packard Microscint 20) in a measuring device (TopCount of Packard).
The analysis of the concentration binding curve is carried out on the assumption of one receptor binding site.

T1 sequence (Q99705 whole entry): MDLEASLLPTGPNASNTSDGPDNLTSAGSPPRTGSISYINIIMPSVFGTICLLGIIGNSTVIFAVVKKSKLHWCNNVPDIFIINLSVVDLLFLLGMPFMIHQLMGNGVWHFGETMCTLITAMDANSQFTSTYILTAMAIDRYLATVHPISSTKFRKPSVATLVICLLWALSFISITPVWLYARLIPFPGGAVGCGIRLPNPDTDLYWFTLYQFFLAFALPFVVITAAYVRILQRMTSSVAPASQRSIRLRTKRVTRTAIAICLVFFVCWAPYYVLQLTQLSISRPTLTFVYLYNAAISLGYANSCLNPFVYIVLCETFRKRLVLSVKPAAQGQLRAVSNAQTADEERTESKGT

IC50	SMILES
41 nM	CCN(CC)CCn1ccc2cc(NC(=O)COc3ccc(C(F)(F)F)cc3Cl)ccc21 [Example 12]
17 nM	CCN(CC)CCOc1ccc(NC(=O)COc2ccc(C(C)(C)C)cc2Cl)cc1Cl [Example 34]

From patent US7351719B2, “Amide compounds having MCH-antagonistic activity and medicaments comprising these compounds” (Boehringer Ingelheim Pharma GmbH & Co. KG, priority 2002, dated 2008)
